Measurements published in publication PMC10101059, “Rational Design of Stapled Antimicrobial Peptides to Enhance Stability and In Vivo Potency against Polymicrobial Sepsis” (Microbiology Spectrum, 2023).
Bridge positions count the residues as written; N and C are the ends. Square brackets hold non-standard residues; d marks the D form. Peptide text beside a SMILES is read from it. R5 = C=CCCC[C@@](C)(N)C(=O)O

What was measured:
[1] = test system: human red blood cells; assay type: cell-based
Summary of the method: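 Healthy human blood as a 2% cell suspension in normal saline was mixed 1:1 with peptide at graded concentrations and held at 37 ± 2°C for 1 h. After centrifugation, supernatant absorbance at 540 nm gave percent hemolysis relative to controls.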

[2] = test system: A. baumannii; test: PI membrane permeabilization assay; assay type: cell-based, Acinetobacter baumannii; details: 25 μM, 10^8 CFU/mL
Experimental: Mid-log-phase bacterial cells (A. baumannii) were resuspended in 10 mM PBS (pH 7.4) to a density of 10^8 CFU/mL. The cell suspension was supplemented with 25 mM glucose followed by 15 min incubation at 37°C. After the incubation, N-phenyl-1-naphthylamine dye was added to a final concentration of 10 μM. Next, 90 μL of bacterial cells was transferred to a 96-well black plate, and fluorescence was recorded for 40 min (excitation/emission: 350/420 nm). […] After this treatment, fluorescence was recorded for an additional 20 min ([53]). Data are presented as fluorescence values as a function of time. Permeabilization of blank- and test compound-treated cells was compared. For the PI membrane permeabilization assay, 10^8 bacterial cells (A. baumannii) were resuspended in MHB containing 20 μg/mL PI. […] Fluorescence was read (excitation/emission: 584/620 nm). Fluorescence values of blank- and compound-treated cells were graphed as a function of time ([54], [55]).

[3] = test system: murine macrophage (RAW 264.7); test: alamarBlue cytotoxicity assay; assay type: cell-based; details: at 12.5 μM, 24 h
Experimental: (§1) (i) Cell culture. Human skin keratinocytes (HaCaT), human kidney (HK-2), and RAW 264.7 macrophage cells were obtained from the Bioresource Collection and Research Center (BCRC, Hsinchu, Taiwan). HaCaT and […] macrophage cells were cultured in Dulbecco’s modified Eagle’s medium (DMEM, Thermo Fischer, MA, USA.) supplemented with 10% FBS, penicillin (100 U/mL), and streptomycin (100 μg/mL) at 37°C under 5% CO2. HK-2 cells were cultured in glucose-free Keratinocyte serum-free medium (K-SFM) supplemented with 0.05 mg/mL bovine pituitary extract (BPE), 5 ng/mL EGF, 100 U/mL penicillin, and […] streptomycin at 37°C in 5% CO2 ([49]).
(§2) In vitro toxicity assay. The cytotoxicity of TP4-3 was evaluated by an alamarBlue assay. HaCaT, HK-2, and RAW 264.7 macrophage cells were seeded at densities of 1 × 10^4 cells/well in 96-well cell plates and treated with the indicated concentrations of TP4 and TP4-3 for 24 h (0.78 to 100 μM). Cells treated with 0.1% Triton X-100 and culture medium served as negative and positive-control groups, respectively. After incubation, the cells were washed and incubated for 2 h at 37°C with 90 μL Dulbecco’s modified Eagle medium (DMEM) containing 10 μL alamarBlue reagent. Fluorescence was recorded using a Spectra Max i3 Multi-Mode detection platform (Molecular Devices, San Jose, CA) to measure cell viability ([50], [51]).

[4] = test system: human keratinocyte (HaCaT); test: alamarBlue cytotoxicity assay; assay type: cell-based; details: at 3.13 μM, 24 h
Experimental: as §1, §2

[5] = test system: human kidney cell (HK-2); test: alamarBlue cytotoxicity assay; assay type: cell-based; details: at 3.13 μM, 24 h
Experimental: as §1, §2

In the case of `CC[C@H](C)[C@H](NC(=O)[C@@H](NC(=O)[C@@H](N)Cc1ccccc1)[C@@H](C)CC)C(=O)N[C@]1(C)CCCC=CCCC[C@](C)(C(=O)NCC(=O)N[C@@H](CC(C)C)C(=O)N[C@@H](Cc2ccccc2)C(=O)N[C@@H](CCCCN)C(=O)N[C@@H](CCCCN)C(=O)N[C@@H](CCCCN)C(=O)N[C@@H](C)C(=O)NCC(=O)N[C@@H](C)C(=O)N[C@]2(C)CCCC=CCCC[C@](C)(C(=O)N[C@H](C(=O)N[C@@H](CCCCN)C(=O)N[C@@H](CCCCN)C(=O)O)[C@@H](C)CC)NC(=O)[C@H](CCCCN)NC(=O)[C@H](CCCCN)NC(=O)[C@H](CCCCN)NC2=O)NC(=O)[C@H](CO)NC(=O)[C@H](CCCCN)NC(=O)[C@H](CCCCN)NC1=O` [TP4-3] (H-FII[R5]KKS[R5]GLFKKKAGA[R5]KKK[R5]IKK-OH; staple 4-8, 18-22; N-terminus and C-terminus assumed), the 15% hemolysis concn [1] was >100 µM, the “PI fluorescence signal vs controls” value [2] was “approximately 3 fold” and the cell death [3] was < 10%. The cell death [4] was < 10% and the cell death [5] was < 10%.
